The text below walks through data of PMC11395397, “Isolation and Characterization of Novel Pueroside B Isomers and Other Bioactive Compounds from Pueraria lobata Roots: Structure Elucidation, α-Glucosidase, and α-Amylase Inhibition Studies” (International Journal of Molecular Sciences, 2024).

In test [1] the target is T1, α-Glucosidase (from yeast, EC 3.2.1.20) (Saccharomyces cerevisiae, UniProt P53341).
T1 construct: purchased Shanghai Yuanye Bio-Technology Co., Ltd. (Shanghai, China)
Description: biochemical. The class given is biochemical. Particulars: for IC50: means ± SD, n = 3, yeast enzyme, p-NPG substrate, 37 °C; for α-glucosidase inhibitory activity (in words): tested up to 100.00 μM. How it is done: (§1) ESI-HR-MS was recorded on an Orbitrap Exploris 120 quadrupole electrostatic field orbital well high-resolution mass spectrometer for UPLC-Q-Orbitrap HRMS (Waltham, MA, USA) equipped with a Hypersil GOLD C18 column (2.1 × 100 mm, 1.9 μm, ThermoFisher, Waltham, MA, USA). Optical rotations were measured on an MCP 500 polarimeter (Anton Paar, Graz, Austria). CD spectra were obtained using a Chirascan circular dichroism spectrometer (Applied PhotoPhysics, Leatherhead, Surrey, UK). UV spectra were measured with a UV-3600 Plus spectrophotometer (Shimadzu, Kyoto, Japan), and IR spectra were obtained using an IR Affinity-1S spectrophotometer (Shimadzu, Kyoto, Japan). Preparative and semipreparative HPLC were performed on a Shimadzu LC-16 system using a reverse-phase C18 column (20 × 250 mm, 5 μm, Shimadzu, Kyoto, Japan). NMR experiments were conducted on a Bruker AVANCE-600 instrument with tetramethylsilane (TMS) as an internal standard, operating at 600 MHz for ^1H NMR and 150 MHz for ^13C NMR (Ettlingen, Germany). Enzyme inhibition activity was measured using an Agilent Synergy H1 microplate reader (Agilent Technologies, Santa Clara, CA, USA). Macroporous resin AB-8 was obtained from the Chemical Plant of Nankai University (Tianjin, China). […] Analytical-grade reagents were procured from Da Mao Chemical Reagent Co., Ltd. (Tianjin, China), chromatographic-grade reagents from Honeywell Trade (Shanghai) Co., Ltd. (Shanghai, China), and distilled water from Watsons (Hong Kong, China).
Then, 400 μL of p-NPG solution (5 mM) was added to initiate the enzymatic reaction, which continued to incubate at 37 °C for 20 min. The reaction was terminated by placing the mixture in a −20 °C freezer for 10 min. Absorbance was measured at 405 nm using a microplate reader.

Test [2] deals with T2, α-amylase (from porcine pancreas) (Sus scrofa, UniProt P00690).
T2 construct: purchased Shanghai Yuanye Bio-Technology Co., Ltd. (Shanghai, China); host or cells: porcine pancreas
T2 sequence (P00690 16-511): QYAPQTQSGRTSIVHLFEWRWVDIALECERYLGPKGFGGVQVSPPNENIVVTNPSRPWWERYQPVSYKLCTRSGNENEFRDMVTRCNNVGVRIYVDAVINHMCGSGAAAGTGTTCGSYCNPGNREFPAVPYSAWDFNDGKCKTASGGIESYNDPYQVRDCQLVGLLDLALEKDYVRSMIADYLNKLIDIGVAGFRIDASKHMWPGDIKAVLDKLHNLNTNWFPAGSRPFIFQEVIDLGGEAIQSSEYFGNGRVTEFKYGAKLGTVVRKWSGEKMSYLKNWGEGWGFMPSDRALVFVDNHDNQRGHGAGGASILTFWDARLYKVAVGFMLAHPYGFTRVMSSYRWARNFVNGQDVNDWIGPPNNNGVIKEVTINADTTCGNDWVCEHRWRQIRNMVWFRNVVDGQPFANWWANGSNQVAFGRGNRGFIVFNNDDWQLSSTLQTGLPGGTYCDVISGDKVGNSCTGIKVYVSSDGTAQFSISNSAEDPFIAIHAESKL
The test can be described thus: α-amylase inhibition assay (DNS colorimetric, 540 nm). The test is classed as biochemical. Particulars: for IC50: means ± SD, n = 3, porcine pancreas enzyme, DNS method, 37 °C; for α-amylase inhibitory activity (in words): tested up to 100.00 μM. How it is done:
as §1
Test sample solutions at various concentrations (5.00, 10.00, 20.00, 40.00, 60.00, 80.00, and 100.00 μM) were preincubated with α-amylase (2 U/mL) at 37 °C for 10 min. The reaction was terminated by adding 200 μL of DNS reagent and boiling the mixture at 100 °C for 5 min to inactivate the enzyme. After cooling to room temperature, 1 mL of distilled water was added for dilution, and absorbance was measured at 540 nm.

Molecules are shown by their SMILES. Where two headings read alike, the source gives them in different places.

T1 sequence (P53341 whole entry): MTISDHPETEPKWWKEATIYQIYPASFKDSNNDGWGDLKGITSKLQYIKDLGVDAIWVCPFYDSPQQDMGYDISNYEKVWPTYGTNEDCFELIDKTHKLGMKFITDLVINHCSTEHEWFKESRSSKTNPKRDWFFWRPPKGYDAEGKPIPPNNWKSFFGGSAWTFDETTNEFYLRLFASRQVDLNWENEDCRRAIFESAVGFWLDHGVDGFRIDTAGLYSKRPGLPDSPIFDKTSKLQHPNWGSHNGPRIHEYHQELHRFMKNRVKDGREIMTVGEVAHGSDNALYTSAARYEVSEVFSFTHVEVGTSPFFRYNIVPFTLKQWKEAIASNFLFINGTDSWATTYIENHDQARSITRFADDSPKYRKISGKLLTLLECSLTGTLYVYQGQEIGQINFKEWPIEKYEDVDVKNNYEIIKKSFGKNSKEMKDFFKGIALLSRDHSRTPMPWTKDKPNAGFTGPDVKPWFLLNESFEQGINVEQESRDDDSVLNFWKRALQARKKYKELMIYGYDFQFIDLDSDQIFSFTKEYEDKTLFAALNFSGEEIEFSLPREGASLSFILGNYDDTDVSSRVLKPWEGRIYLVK

Broadly, the IC50 is the concentration needed to halve the response being measured. Turning to `COc1cc2c(cc1OC)[C@@H](Cc1ccc(Oc3cc(C[C@@H]4c5cc(OC)c(OC)cc5CCN4C)ccc3O)cc1)N(C)CC2` [Compound 4, dauricine], the IC50 in test [1] (IC50 α-Glucosidase) is 44.2 ± 1.03 µM; in test [2] (read-out: IC50 α-Amylase), 60.9 ± 1.68 µM.

Regarding `COC1=CC(=O)[C@@]2([C@@H]1O)[C@@H](Cl)C[C@@]13C(OC)=C(OC)C(=O)C[C@@]21CCN3C` [Compound 8, acutumine], the figures for the IC50 in test [1] (read-out: IC50 α-Glucosidase) and in test [2] (read-out: IC50 α-Amylase) were 66.5 ± 2.03 µM and 80.7 ± 1.85 µM, respectively.

For the compound `COc1ccc(C2=CC(=O)OC2Cc2ccc(OC3OC(CO)C(O)C(O)C3O)cc2)c(OC2OC(CO)C(O)C(O)C2O)c1` (stereo not drawn) [Compound 2, 4S-pueroside B], the IC50 in test [1] (read-out: IC50 α-Glucosidase) and in test [2] (read-out: IC50 α-Amylase) was above 100 µM each time. Further, in test [1], the “α-glucosidase inhibitory activity (in words)” value is on record as “did not show any activity”. In test [2], the “α-amylase inhibitory activity (in words)” value is “did not show any activity”.

Turning to `COc1cc2c(cc1O)[C@@H]1Cc3ccc(O)c(OC)c3CN1CC2` [Compound 7, stepholidine], the IC50 was determined as 58.8 ± 1.55 µM in test [1] (read-out: IC50 α-Glucosidase) and 78.2 ± 1.98 µM in test [2] (read-out: IC50 α-Amylase).

Regarding `COc1ccc2c(c[n+](C)c3c4cc5c(cc4ccc23)OCO5)c1OC` [Compound 6, chelerythrine], the IC50 in test [1] (read-out: IC50 α-Glucosidase) came out at 52.3 ± 1.59 µM; in test [2] (read-out: IC50 α-Amylase) it was 71.4 ± 1.24 µM.

For the compound `COC1=C[C@@H]2[C@@H]3Cc4ccc(OC)c(O)c4[C@]2(CCN3C)CC1=O` [Compound 9, sinomenine], the half-maximal inhibitory concentration (IC50) in test [1] (IC50 α-Glucosidase) came out at 57.6 ± 0.88 µM; in test [2] (IC50 α-Amylase) it was 66.7 ± 1.45 µM.

As to `COc1cc(O)ccc1C(O)C(=O)Cc1ccc(O)cc1` (stereo not drawn) [Compound 10], the IC50 in test [1] (read-out: IC50 α-Glucosidase) came out at 43.6 ± 0.76 µM; in test [2] (read-out: IC50 α-Amylase) it was 63.6 ± 1.37 µM.

With `COc1ccc(C2=CC(=O)OC2Cc2ccc(O)cc2)c(OC2OC(CO)C(O)C(O)C2O)c1` (single isomer, unassigned; (-)) [Compound 3, (−)-puerol B-2-O-glucopyranoside], the values for the IC50 in test [1] (read-out: IC50 α-Glucosidase) and in test [2] (read-out: IC50 α-Amylase) were 72.9 ± 0.79 µM and 83.6 ± 1.15 µM, respectively. Further, the “α-glucosidase inhibitory activity (in words)” value in test [1] is reported as “significant inhibitory activity”. Further, the “α-amylase inhibitory activity (in words)” value in test [2] is “significant inhibitory activity”.

With `COc1cc2c(cc1O)[C@@H](Cc1ccc(O)c(Oc3ccc(C[C@@H]4c5cc(OC)c(OC)cc5CCN4C)cc3)c1)N(C)CC2` [Compound 5, daurisoline], the IC50 came to 45.2 ± 1.27 µM in test [1] (IC50 α-Glucosidase) and 66.4 ± 2.31 µM in test [2] (read-out: IC50 α-Amylase).

Consider `COc1ccc(C2=CC(=O)OC2Cc2ccc(OC3OC(CO)C(O)C(O)C3O)cc2)c(OC2OC(CO)C(O)C(O)C2O)c1` (stereo not drawn) [Compound 1, 4R-pueroside B], for which the IC50 in test [1] (read-out: IC50 α-Glucosidase) is 61.3 ± 1.15 µM; in test [2] (read-out: IC50 α-Amylase) it was 81.7 ± 1.72 µM. Besides, the “α-glucosidase inhibitory activity (in words)” value in test [1] is listed as “significant inhibitory activity”. Besides, the “α-amylase inhibitory activity (in words)” value in test [2] is given as “significant inhibitory activity”.

Regarding `CC1(C)C=Cc2cc3c(cc2O1)OC1C2(O)C=CC(=O)C=C2OCC31O` (stereo not drawn) [Compound 11, hydroxytuberosone], the results for the IC50 in test [1] (read-out: IC50 α-Glucosidase) and in test [2] (read-out: IC50 α-Amylase) were 32.2 ± 0.71 µM and 38.9 ± 1.08 µM, respectively.

For `CC1(C)CC(=O)C2(C)CCC3(C)C(=CCC4C5(C)CCC(=O)C(C)(CO)C5CCC43C)C2C1` (stereo not drawn) [Compound 12, melilotigenin B], the IC50 stood at 23.3 ± 0.38 µM in test [1] (read-out: IC50 α-Glucosidase) and 30.9 ± 0.57 µM in test [2] (read-out: IC50 α-Amylase).
